{"source": "patent US11433031B2", "about": "“Method for manufacturing acetaminophen preparation” (NIPPON ZOKI PHARMACEUTICAL CO., LTD., priority 2016, dated 2022)"}
{"assay": "Particle size distribution by laser-diffraction method (Mastersizer 2000, dry mode)", "assay_type": "physicochemical", "settings": "dispersion air pressure 2 Bar, volume conversion", "source_text": "The acetaminophen to be used in the manufacturing method of the present invention (also referred to as “the present acetaminophen”) has a particle size distribution such that d10 is generally 5 to 300 μm, preferably 10 to 200 μm, more preferably 15 to 100 μm, and d90 is generally 200 to 900 μm, preferably 250 to 800 μm, more preferably 300 to 700 μm. Although there are some differences in the particle size distribution among lots, the unpulverized acetaminophen generally has the above-specified particle size distribution. In contrast, although there are some differences in the particle size distribution of a pulverized product of acetaminophen among the manufacturers of the drug substance and production lots, the particle size distribution of a pulverized product of acetaminophen is generally such that the d10 is 3 to 10 μm and d90 is 100 to 250 μm, and therefore the particle diameters of the pulverized product of acetaminophen are smaller compared with those of the present acetaminophen. In the present invention, the particle size distribution is determined by a volume distribution evaluation employing a laser-diffraction scattering method (Mastersizer 2000: Malvern), and the terms “d10”, “d50”, and “d90” refer to particle diameters at a volume cumulative 10% point, a volume cumulative 50% point, and a volume cumulative 90% point, respectively, as observed from the smaller diameter side in the particle size distribution.\nEach of unpulverized products of acetaminophen (lots A to D) and a pulverized product of acetaminophen (lot P) was subjected to a particle size distribution measurement using a particle measurement method (a dry mode measurement) by a laser-diffraction method. As a machine, a dry automated dispersion unit microtray (Mastersizer 2000, Malvern) was used, the dispersion compression air pressure was 2 Bar, and the analysis of particle size distribution was performed by a volume conversion method. The results of lots E, F, Q, and R are data which were obtained by another company using a different measurement apparatus under different measurement conditions from those employed in the test of the present invention. As shown in the results of Table 1, difference may sometimes occur depending on the measurement conditions and measurement apparatuses used in the measurement of particle size distribution.", "units": {"D10": "μm", "D90": "μm"}}
{"molecule": "CC(=O)Nc1ccc(O)cc1", "note": "[Lot B, acetaminophen]", "D10": 30, "D90": 551}
{"molecule": "CC(=O)Nc1ccc(O)cc1", "note": "[Lot C, acetaminophen]", "D10": 26, "D90": 419}
{"molecule": "CC(=O)Nc1ccc(O)cc1", "note": "[Lot D, acetaminophen]", "D10": 20, "D90": 464}
{"molecule": "CC(=O)Nc1ccc(O)cc1", "note": "[Lot A, acetaminophen]", "D10": 20, "D90": 320}
{"molecule": "CC(=O)Nc1ccc(O)cc1", "note": "[Lot P, acetaminophen]", "D10": 3.7, "D90": 166}
{"assay": "not given", "settings": "data of another company, different apparatus and conditions; cited from earlier work", "units": {"D10": "μm", "D90": "μm"}}
{"molecule": "CC(=O)Nc1ccc(O)cc1", "note": "[Lot E, acetaminophen]", "D10": 93, "D90": 559}
{"molecule": "CC(=O)Nc1ccc(O)cc1", "note": "[Lot F, acetaminophen]", "D10": 220, "D90": 663}
{"molecule": "CC(=O)Nc1ccc(O)cc1", "note": "[Lot R, acetaminophen]", "D10": 9.7, "D90": 192}
{"molecule": "CC(=O)Nc1ccc(O)cc1", "note": "[Lot Q, acetaminophen]", "D10": 5.8, "D90": 104}
